The source of these data is ChEMBL document CHEMBL3232729, “Marsupellins A-F, ent-longipinane-type sesquiterpenoids from the Chinese liverwort Marsupella alpine with acetylcholinesterase inhibitory activity” (J Nat Prod, 2014).

The target in the assay is Acetylcholinesterase (Homo sapiens) (UniProt P22303).

SMILES strings stand for the structures.

Sequence of Acetylcholinesterase (Homo sapiens) (P22303 whole entry): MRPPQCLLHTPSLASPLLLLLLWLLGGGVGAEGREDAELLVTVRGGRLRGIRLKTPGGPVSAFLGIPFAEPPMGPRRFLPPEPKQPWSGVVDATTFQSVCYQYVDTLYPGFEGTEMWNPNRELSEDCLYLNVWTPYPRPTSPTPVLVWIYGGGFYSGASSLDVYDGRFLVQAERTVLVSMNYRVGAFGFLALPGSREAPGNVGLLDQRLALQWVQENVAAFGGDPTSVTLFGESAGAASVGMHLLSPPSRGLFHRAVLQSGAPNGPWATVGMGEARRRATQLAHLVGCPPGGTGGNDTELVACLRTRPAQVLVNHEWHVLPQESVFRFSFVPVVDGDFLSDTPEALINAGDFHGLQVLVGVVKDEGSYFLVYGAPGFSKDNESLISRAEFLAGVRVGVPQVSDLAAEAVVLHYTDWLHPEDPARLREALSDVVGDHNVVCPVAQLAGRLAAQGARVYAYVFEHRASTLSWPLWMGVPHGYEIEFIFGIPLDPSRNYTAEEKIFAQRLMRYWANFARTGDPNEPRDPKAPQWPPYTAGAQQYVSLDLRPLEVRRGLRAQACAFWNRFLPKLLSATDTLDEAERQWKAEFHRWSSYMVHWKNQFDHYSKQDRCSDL
Description: Inhibition of AChE (unknown origin) assessed as minimum inhibitory concentration by bioautographic TLC assay

`C=C1C(=O)C[C@H]2[C@H]3[C@@H]1C2(COC(C)=O)CCCC3(C)C` had an MIC of 4 µg.
The compound `CC(=O)OC[C@]12CCCC(C)(C)[C@@H]3[C@H]1[C@@]1(CO1)C(=O)C[C@@H]32` registered an MIC of 4 µg.
Regarding `C[C@@H]1C(=O)C[C@H]2[C@H]3[C@@H]1C2(C)CCCC3(C)C`, the MIC was 4 µg.
The compound `C=C1OC(=O)C[C@H]2[C@H]3[C@@H]1[C@]2(COC(C)=O)CCCC3(C)C` came in with an MIC of 4 µg.
Compound `C=C1[C@H](O)C[C@H]2[C@H]3[C@@H]1C2(COC(C)=O)CCCC3(C)C` had an MIC of 4 µg.
Compound `C[C@H]1[C@@H]2[C@@H]3[C@@H]4C[C@@]1(O)OC(=O)[C@@]24CCCC3(C)C` registered an MIC of 0.6 µg.
With `C[C@H]1[C@@H]2[C@@H]3[C@@H]4C[C@@]1(O)OC[C@@]24CCCC3(C)C`, the MIC was 0.8 µg.
Regarding `CC(=O)OC[C@]12CCCC(C)(C)[C@@H]3[C@H]1[C@]1(CO1)C(=O)C[C@@H]32`, the MIC was determined as 4 µg.
`C=C1[C@@H](O)[C@H](O)[C@H]2[C@H]3[C@@H]1C2(C)CCCC3(C)C` came in with an MIC of 4 µg.
